Test results from patent US20100029643A1 (ASTRAZENECA AB, priority 2006, published 2010).

target: T1, Edg-1/S1P1 receptor (Homo sapiens, UniProt P21453); assay: In vitro cell based receptor activation assay - Transfluor assay (assay I or II; beta-arrestin GFP relocalization after S1P stimulation); settings: at 3.30 μM (run with this as top concentration)
T1 construct: expressed in transfected cells; host or cells: human osteogenic sarcoma U2OS cells: Edg-1 Transfluor U2OS WT Clone #37 (assay I), Edg-1 Transfluor U2OS Clone #3 (assay II)
T1 sequence (P21453 whole entry): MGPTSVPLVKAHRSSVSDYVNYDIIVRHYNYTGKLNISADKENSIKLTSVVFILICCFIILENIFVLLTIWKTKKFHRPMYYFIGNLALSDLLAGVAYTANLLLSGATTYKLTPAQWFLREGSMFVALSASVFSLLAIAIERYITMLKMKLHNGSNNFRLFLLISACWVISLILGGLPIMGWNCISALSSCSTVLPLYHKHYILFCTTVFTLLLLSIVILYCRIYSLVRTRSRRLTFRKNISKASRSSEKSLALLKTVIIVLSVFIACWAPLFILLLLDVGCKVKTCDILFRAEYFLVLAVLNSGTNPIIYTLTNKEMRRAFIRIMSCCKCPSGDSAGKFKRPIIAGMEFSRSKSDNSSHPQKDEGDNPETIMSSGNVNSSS
Outline: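 U2OS cells overexpressing S1P1 with a beta-arrestin-GFP construct were pre-incubated with compound for 15 min at room temperature, then stimulated with S1P for 45 min at 37 °C. In assay I, final S1P was 375 nM or 750 nM and compound was a 9-point 3-fold series from 100 μM, in 1% DMSO. Cells were fixed and Hoechst-stained, GFP relocalization was imaged, and EC50 values were fitted.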

Row | inhibition at 3.3 µM | Structure (SMILES)
1 | 71.7% | CCn1c([C@@H](C)NS(=O)(=O)C2=Cc3ccccc3CC2)nc2ccc(C(F)(F)F)cc21 [Example 119, M-{(1R)-1-[1-Ethyl-6-(trifluoromethyl)-1H-benzimidazol-2-yl]ethyl}-3,4-diyhydronaphthalene-2-sulfonamide]
2 | 74% | CCn1cc(S(=O)(=O)N[C@H](C)c2nc3ccc(C(F)(F)F)cc3n2CC)cn1 [Example 121, 1-ethyl-N-{(1R)-1-[1-Ethyl-6-(trifluoromethyl)-1H-benzimidazol-2-yl]ethyl}-1H-pyrazole-4-sulfonamide]

same assay, conditions: at 3.50 μM (titrated from top concentration 10 μM)

Row | inhibition at 3.5 µM | Structure (SMILES) | % inhibition
3 | 92.4% | CCn1c([C@@H](C)NS(=O)(=O)c2ccc([N+](=O)[O-])cc2)nc2ccc(C(F)(F)F)cc21 [Example 110, (R)-N-(1-(1-Ethyl-6-(trifluoromethyl)-1H-benzo[d]imidazol-2-yl)ethyl)-4-nitrobenzenesulfonamide] | 
4 |  | CCn1c([C@@H](C)NS(=O)(=O)c2ccc(NC(N)=O)cc2)nc2ccc(C(F)(F)F)cc21 [Example 112, (R)-N-(1-(1-Ethyl-6-(trifluoromethyl)-1H-benzo[d]imidazol-2-yl)ethyl)-4-ureidobenzenesulfonamide] | [drawing 124] (R)-N-(1-(1-Ethyl-6- (trifluoromethyl)-1H- benzo[d]imidazol-2-yl)ethyl)- 4-ureidobenzenesulfonamide (Inactive at 3.50 μM)
5 |  | CCn1c([C@@H](C)NS(=O)(=O)c2ccc(NC(=O)N(C)C)cc2)nc2ccc(C(F)(F)F)cc21 [Example 113, (R)-4-(3,3-Dimethylureido)-N-(1-(1-ethyl-6-(trifluoromethyl)-1H-benzo[d]imidazol-2-yl)ethyl)benzenesulfonamide] | [drawing 125] (R)-4-(3,3-Dimethylureido)- N-(1-(1-ethyl-6- (trifluoromethyl)-1H- benzo[d]imidazol-2-yl)ethyl)benzenesulfonamide (Inactive at 3.50 μM)
6 | 72% | CCn1c([C@@H](C)NS(=O)(=O)c2ccc(C#N)cn2)nc2ccc(C(F)(F)F)cc21 [Example 114, (R)-5-Cyano-N-(1-(1-ethyl-6-(trifluoromethyl)-1H-benzo[d]imidazol-2-yl)ethyl)pyridine-2-sulfonamide] | 
7 | 85.3% | CCn1c([C@@H](C)NS(=O)(=O)c2ccc(C)cc2)nc2ccc(C(F)(F)F)cc21 [Example 115, (R)-N-(1-(1-Ethyl-6-(trifluoromethyl)-1H-benzo[d]imidazol-2-yl)ethyl)-4-methylbenzenesulfonamide] | 
8 | 64.1% | CCn1c([C@@H](C)NS(=O)(=O)c2ccc(CC(C)C)cc2)nc2ccc(C(F)(F)F)cc21 [Example 116, N-{(1R)-1-[1-Ethyl-6-(trifluoromethyl)-1H-benzimidazol-2-yl]ethyl}-4-isobutylbenzenesulfonamide] | 
9 | 78% | CCn1c([C@@H](C)NS(=O)(=O)c2cnn(C(C)C)c2C)nc2ccc(C(F)(F)F)cc21 [Example 118, N-{(1R)-1-[1-Ethyl-6-(trifluoromethyl)-1H-benzimidazol-2-yl]ethyl}-1-isopropyl-5-methyl-1H-pyrazole-4-sulfonamide] | 
10 | 90.9% | CCn1c([C@@H](C)NS(=O)(=O)c2cccc(F)c2)nc2ccc(C(F)(F)F)cc21 [Example 120, N-{(1R)-1-[1-Ethyl-6-(trifluoromethyl)-1H-benzimidazol-2-yl]ethyl}-3-fluorobenzenesulfonamide] | 
11 | 91.4% | CCn1c([C@@H](C)NS(=O)(=O)c2ccc(OC)cc2)nc2ccc(C(F)(F)F)cc21 [Example 122, N-{(1R)-1-[1-Ethyl-6-(trifluoromethyl)-1H-benzimidazol-2-yl]ethyl}-4-methoxybenzenesulfonamide] | 
12 | 96.7% | CCn1c([C@@H](C)NS(=O)(=O)c2cccc(Cl)c2)nc2ccc(C(F)(F)F)cc21 [Example 123, 3-Chloro-N-{(1R)-1-[1-ethyl-6-(trifluoromethyl)-1H-benzimidazol-2-yl]ethyl}benzenesulfonamide] | 
13 | 79.4% | CCn1c([C@@H](C)NS(=O)(=O)c2ccc(OC)c(OC)c2)nc2ccc(C(F)(F)F)cc21 [Example 124, N-{(1R)-1-[1-Ethyl-6-(trifluoromethyl)-1H-benz-imidazol-2-yl]ethyl}-3,4-di-methoxybenzenesulfonamide] | 
14 | 14.9% | CCn1c([C@@H](C)NS(=O)(=O)c2ccccn2)nc2ccc(C(F)(F)F)cc21 [Example 125, N-{(1R)-1-[1-Ethyl-6-(trifluoromethyl)-1H-benzimidazol-2-yl]ethyl}pyridine-2-sulfonamide] | 
15 | 92.8% | CCn1c([C@@H](C)NS(=O)(=O)c2cccnc2)nc2ccc(C(F)(F)F)cc21 [Example 126, (R)—N-(1-(1-ethyl-6-(trifluoromethyl)-1H-benzo[d]imidazol-2-yl)ethyl)pyridine-3-sulfonamide] | 
16 | 86.4% | CCn1c([C@@H](C)NS(=O)(=O)c2ccncc2)nc2ccc(C(F)(F)F)cc21 [Example 127, (R)-N-(1-(1-Ethyl-6-(trifluoromethyl)-1H-benzo[d]imidazol-2-yl)ethyl)pyridine-4-sulfonamide] | 
17 | 94.5% | CCn1c([C@@H](C)NS(=O)(=O)c2cnc(NN)c(Cl)c2)nc2ccc(C(F)(F)F)cc21 [Example 128, R-5-chloro-N-(1-(1-ethyl-6-(trifluoromethyl)-1H-benzo[d]imidazol-2-yl)ethyl)-6-hydrazinylpyridine-3-sulfonamide] | 
18 | 90.3% | CCn1c([C@@H](C)NS(=O)(=O)c2cncc(Cl)c2)nc2ccc(C(F)(F)F)cc21 [Example 129, R-5-chloro-N-(1-(1-ethyl-6-(trifluoromethyl)-1H-benzo[d]imidazol-2-yl)ethyl)pyridine-3-sulfonamide] | 

Row | inhibition at 3.5 µM | Structure (SMILES) | % inhibition
19 | 10.8% | CCn1c(C(C)NS(=O)(=O)c2ccc(CN3CCOCC3)cc2)nc2ccc(C(F)(F)F)cc21 (stereo not drawn) [Example 130, N-(1-(1-ethyl-6-(trifluoromethyl)-1H-benzo[d]imidazol-2-yl)ethyl)-4-(morpholinomethyl)benzenesulfonamide] | 
20 | 95% | CCn1c([C@@H](C)NS(=O)(=O)c2ccc(S(C)(=O)=O)cc2)nc2ccc(C(F)(F)F)cc21 [Example 131, (R)-N-(1-(1-Ethyl-6-(trifluoromethyl)-1H-benzo[d]imidazol-2-yl)ethyl)-4-(methylsulfonyl)-benzenesulfonamide] | 
21 | 86.2% | CCn1c([C@@H](C)NS(=O)(=O)c2ccc(F)cc2)nc2cnc(OC)cc21 [Example 132, (R)-N-(1-(1-Ethyl-6-methoxy-1H-imidazo[4,5-c]pyridin-2-yl)ethyl)-4-fluorobenzenesulfonamide] | 
22 | 86.4% | C#Cc1ccc(S(=O)(=O)N[C@H](C)c2nc3ccc(C(F)(F)F)cc3n2CC)cn1 [Example 133, (R)-N-(1-(1-Ethyl-6-(trifluoromethyl)-1H-benzo[d]imidazol-2-yl)ethyl)-6-ethynylpyridine-3-sulfonamide] | 
23 | 95% | CCn1c([C@@H](C)NS(=O)(=O)c2ccc(F)c(CN)c2)nc2ccc(C(F)(F)F)cc21 [Example 134, 3-(Aminomethyl)-N-[(1R)-1-[1-ethyl-6-(trifluoromethyl)-1H-benzimidazol-2-yl]ethyl]-4-fluorobenzenesulfonamide] | 
24 | 82.9% | CCn1c(C(C)(C)NS(=O)(=O)c2ccc(Cl)cc2)nc2ccc(C(F)(F)F)cc21 [Example 136, 4-Chloro-N-{1-[1-ethyl-6-(trifluoromethyl)-1H-benzimidazol-2-yl]-1-methylethyl}benzenesulfon-amide] | 
25 | 88.8% | CCn1c(C(C)(C)NS(=O)(=O)c2ccc(F)cc2)nc2ccc(C(F)(F)F)cc21 [Example 137, N-[1-(1-Ethyl-6-trifluoromethyl-1H-benzoimidazol-2-yl)-1-methyl-ethyl]-4-fluoro-benzenesulfonamide] | 
26 | 78.4% | CCn1c(C(C)(C)NS(=O)(=O)c2ccc(C#N)cc2)nc2ccc(C(F)(F)F)cc21 [Example 138, 4-Cyano-N-[1-(1-ethyl-6-trifluoromethyl-1H-benzoimidazol-2-yl)-1-methyl-ethyl]-benzenesulfonamide] | 
27 | 88.3% | CCn1c(C(C)(C)NS(=O)(=O)c2ccccc2)nc2ccc(C(F)(F)F)cc21 [Example 139, N-{(1R)-1-[1-Ethyl-6-(trifluoromethyl)-1H-benzimidazol-2-yl]-1-methyl-ethyl}benzenesulfonamide] | 
28 | 82.9% | CCn1c(C(C)(C)NS(=O)(=O)c2ccc(C#N)nc2)nc2ccc(C(F)(F)F)cc21 [Example 140, 6-Cyano-N-(2-(1-ethyl-6-(trifluoromethyl)-1H-0 benzo[d]imidazol-2-yl)propan-2-yl)pyridine-3-sulfonamide] | 
29 | 82.6% | CCn1c(C(C)(C)NS(=O)(=O)c2ccc(C(N)=O)nc2)nc2ccc(C(F)(F)F)cc21 [Example 141, 5-(N-(2-(1-Ethyl-6-(trifluoromethyl)-1H-benzo[d]imidazol-2-yl)propan-2-yl)sulfamoyl)picolinamide] | 
30 | 80.5% | CCn1c(C2(NS(=O)(=O)c3ccc(Cl)cc3)CC2)nc2ccc(C(F)(F)F)cc21 [Example 142, 4-Chloro-N-{1-[1-ethyl-6-(trifluoromethyl)-1H-benzimidazol-2-yl]cyclopropyl}benzenesulfon amide] | 
31 | 84.7% | CCn1c(C2(NS(=O)(=O)c3ccc(F)cc3)CCC2)nc2ccc(C(F)(F)F)cc21 [Example 143, N-[1-(1-Ethyl-6-trifluoromethyl-1H-benzoimidazol-2-yl)-cyclobutyl]-4-fluoro-benzenesulfonamide] | 
32 | 90.7% | CCn1c([C@@H](C)NS(=O)(=O)c2ccc(Cl)cc2)nc2cnc(OC)cc21 [Example 144, (R)-4-Chloro-N-(1-(1-ethyl-6-methoxy-1H-imidazo[4,5-c]pyridin-2-yl)ethyl)benzenesulfonamide] | 
33 | 91.8% | CCn1c([C@@H](C)NS(=O)(=O)c2ccc(C#N)cc2)nc2cnc(C(F)(F)F)cc21 [Example 146, (R)-4-Cyano-N-(1-(1-ethyl-6-(trifluoromethyl)-1H-imidazo[4,5-c]pyridin-2-yl)ethyl)benzenesulfonamide] | 
